# Results as given in PubChem BioAssay AID1845194 (Molecular Pharmacology Branch, DTP, NCI, 2023).
# Test system: 287954-098-R-J1 tumor spheroid viability
# Test: Anticancer human tumor 287954-098-R-J1 patient-derived Ewing sarcoma cell line growth inhibition
# Conditions: spheroids with HUVEC and MSC; for IC50: curve of first compound; for viability, T/C: stronger effect = lower value
# Outline: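 Single agents and combinations were tested on spheroids built from tumor cells plus HUVEC and hMSC, at half-log dilutions starting at or near clinical Cmax, else 10 microM; final DMSO 0.25% (v/v).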
# 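Note: spheroids exposed to compound for 7 days before viability readout.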
# 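Throughout, for viability, T/C: luminescent signal taken as surrogate of viable cell content; 100% = DMSO vehicle control viability and lower means growth inhibition.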
smiles,measurement,setting,value
CNCc1ccc(-c2cc(-c3nc(-c4ccc(S(=O)(=O)C(C)C)cc4)cnc3N)on2)cc1 + CC[C@@]1(O)C(=O)OCc2c1cc1n(c2=O)Cc2cc3c(CN(C)C)c(O)ccc3nc2-1,IC50,second compound 0.003 µM,198 nM
same,IC50,second compound 0.00949 µM,158 nM
same,IC50,second compound 0.03 µM,< 9.49 nM
same,IC50,second compound 0.0949 µM,< 9.49 nM
same,IC50,second compound 0.3 µM,< 9.49 nM
same,"viability, T/C","second compound 0.003 µM, first compound 0.00949 µM",109%
same,"viability, T/C","second compound 0.003 µM, first compound 0.03 µM",93.4%
same,"viability, T/C","second compound 0.003 µM, first compound 0.0949 µM",108%
same,"viability, T/C","second compound 0.003 µM, first compound 0.3 µM",19.7%
same,"viability, T/C","second compound 0.003 µM, first compound 0.949 µM",0.19%
same,"viability, T/C","second compound 0.003 µM, first compound 3 µM",0.31%
same,"viability, T/C","second compound 0.00949 µM, first compound 0.00949 µM",103%
same,"viability, T/C","second compound 0.00949 µM, first compound 0.03 µM",114%
same,"viability, T/C","second compound 0.00949 µM, first compound 0.0949 µM",89.3%
same,"viability, T/C","second compound 0.00949 µM, first compound 0.3 µM",0.67%
same,"viability, T/C","second compound 0.00949 µM, first compound 0.949 µM",0.1%
same,"viability, T/C","second compound 0.00949 µM, first compound 3 µM",0.26%
same,"viability, T/C","second compound 0.03 µM, first compound 0.00949 µM",19.1%
same,"viability, T/C","second compound 0.03 µM, first compound 0.03 µM",3.38%
same,"viability, T/C","second compound 0.03 µM, first compound 0.0949 µM",2.05%
same,"viability, T/C","second compound 0.03 µM, first compound 0.3 µM",0.64%
same,"viability, T/C","second compound 0.03 µM, first compound 0.949 µM",0.05%
same,"viability, T/C","second compound 0.03 µM, first compound 3 µM",0.26%
same,"viability, T/C","second compound 0.0949 µM, first compound 0.00949 µM",2.1%
same,"viability, T/C","second compound 0.0949 µM, first compound 0.03 µM",2.08%
same,"viability, T/C","second compound 0.0949 µM, first compound 0.0949 µM",2.28%
same,"viability, T/C","second compound 0.0949 µM, first compound 0.3 µM",0.97%
same,"viability, T/C","second compound 0.0949 µM, first compound 0.949 µM",0.06%
same,"viability, T/C","second compound 0.0949 µM, first compound 3 µM",0.3%
same,"viability, T/C","second compound 0.3 µM, first compound 0.00949 µM",2.14%
same,"viability, T/C","second compound 0.3 µM, first compound 0.03 µM",2.11%
same,"viability, T/C","second compound 0.3 µM, first compound 0.0949 µM",2.27%
same,"viability, T/C","second compound 0.3 µM, first compound 0.3 µM",1.94%
same,"viability, T/C","second compound 0.3 µM, first compound 0.949 µM",0.24%
same,"viability, T/C","second compound 0.3 µM, first compound 3 µM",0.43%
O=C(c1cc(Cc2n[nH]c(=O)c3ccccc23)ccc1F)N1CCN(C(=O)C2CC2)CC1 + Cn1nnc2c(C(N)=O)ncn2c1=O,IC50,second compound 1 µM,20600 nM
same,IC50,second compound 3.16 µM,20900 nM
same,IC50,second compound 10 µM,10400 nM
same,IC50,second compound 31.6 µM,3410 nM
same,IC50,second compound 100 µM,621 nM
same,"viability, T/C","second compound 1 µM, first compound 0.0949 µM",97.5%
same,"viability, T/C","second compound 1 µM, first compound 0.3 µM",97.2%
same,"viability, T/C","second compound 1 µM, first compound 0.949 µM",106%
same,"viability, T/C","second compound 1 µM, first compound 3 µM",95.1%
same,"viability, T/C","second compound 1 µM, first compound 9.49 µM",86.2%
same,"viability, T/C","second compound 1 µM, first compound 30 µM",32.5%
same,"viability, T/C","second compound 3.16 µM, first compound 0.0949 µM",104%
same,"viability, T/C","second compound 3.16 µM, first compound 0.3 µM",101%
same,"viability, T/C","second compound 3.16 µM, first compound 0.949 µM",98.2%
same,"viability, T/C","second compound 3.16 µM, first compound 3 µM",105%
same,"viability, T/C","second compound 3.16 µM, first compound 9.49 µM",85.1%
same,"viability, T/C","second compound 3.16 µM, first compound 30 µM",34%
same,"viability, T/C","second compound 10 µM, first compound 0.0949 µM",107%
same,"viability, T/C","second compound 10 µM, first compound 0.3 µM",107%
same,"viability, T/C","second compound 10 µM, first compound 0.949 µM",93.6%
same,"viability, T/C","second compound 10 µM, first compound 3 µM",99%
same,"viability, T/C","second compound 10 µM, first compound 9.49 µM",53.7%
same,"viability, T/C","second compound 10 µM, first compound 30 µM",4.76%
same,"viability, T/C","second compound 31.6 µM, first compound 0.0949 µM",107%
same,"viability, T/C","second compound 31.6 µM, first compound 0.3 µM",103%
same,"viability, T/C","second compound 31.6 µM, first compound 0.949 µM",106%
same,"viability, T/C","second compound 31.6 µM, first compound 3 µM",56%
same,"viability, T/C","second compound 31.6 µM, first compound 9.49 µM",2.11%
same,"viability, T/C","second compound 31.6 µM, first compound 30 µM",1.97%
same,"viability, T/C","second compound 100 µM, first compound 0.0949 µM",104%
same,"viability, T/C","second compound 100 µM, first compound 0.3 µM",88.5%
same,"viability, T/C","second compound 100 µM, first compound 0.949 µM",27.7%
same,"viability, T/C","second compound 100 µM, first compound 3 µM",2.13%
same,"viability, T/C","second compound 100 µM, first compound 9.49 µM",1.91%
same,"viability, T/C","second compound 100 µM, first compound 30 µM",1.8%
